Consider one compound from US20210085686A1, “DELIVERY OF ACTIVE AGENTS USING NANOFIBER WEBS” (CorMedix Inc., priority 2015, published 2021).

In brackets after ≈: the same amount, converted by molar mass.

The nature of data set [1]: maximum solubility of taurolidine in HFP (preliminary testing). In kind it is physicochemical. To be noted: organic solvent or mixture; solvent 1,1,1,3,3,3-hexafluoro-2-propanol (HFP). Here is the method: All of the polymers and the taurolidine were dissolved in 1,1,1,3,3,3-hexafluoro-2-propanol (HFP; Oakwood Chemical) for processing into small diameter (SD) and large diameter (LD) fibers. […] Thus, for preliminary testing, the taurolidine concentration in the electrospinning solutions was maintained at approximately 100 mg/ml.

The next data set concerns Microbes. To be noted: microbes killed and toxins inactivated; cited from earlier work.

In general, solubility refers to the concentration that dissolves in the medium under given conditions. As to `O=S1(=O)CCN(CN2CCS(=O)(=O)NC2)CN1` [taurolidine, bis(1,1-dioxoperhydro-1,2,4-thiadiazinyl-4)-methane], in data set [1], the solubility was ~218 mg/mL (≈ 767 mM). Moreover, in the data set on Microbes, the “destruction time in vitro” value is 30 min.
